Results published in patent US6921531B2, “Administering bifunctional molecules containing a drug moiety and presenter protein ligand for therapy” (The Board of Trustees of the Leland Stanford Junior …, priority 1998, dated 2005).
pKd: −log10 of the molar value. Entries after “also recorded” stand apart in the source; their conditions may differ. Where two headings read alike, the source gives them in different places.

Assays:
PLC SH2 domain = experiment: Competition binding assay of radioactive PLC SH2 domain to pYEEI beads; details: 1.0-1.5 μM ligand plus FKBP12 (0.5-4.0 μM or 2.0 μM)
Description: The pYEEI peptide was coupled to Affi-Gel 10 beads (Biorad) via its amino-group. The Fyn, Lck and PLC SH2 domains were expressed in bacteria as GST fusion proteins. The linker between the GST protein and the SH2 domain contained a thrombin cleavage site and a protein kinase A (PKA) phosphorylation site. The fusion protein on glutathione beads was radioactively labeled at the PKA phosphorylation site using PKA (Sigma). After extensive washing of the beads, the radioactive SH2 domain was released by cleavage with thrombin (Sigma). In a typical binding assay, 7.5 L of a 1:1 peptide bead slurry were incubated with the radioactive SH2 domain (200 nM) for 2 hours in 100 L of binding buffer (20 mM Tris pH7.2; 150 mM NaCl). In order to separate the radioactive protein bound to the beads, the binding reaction was transfered into a PCR tube (USA Scientific Plastic), whose bottom had been punctured with a 26gauge needle. The PCR tube was placed in a 0.5 mL Eppendorf tube which in turn was placed in a regular 1.5 mL Eppendorf tube. The tubes were spun for 1 second at maximal speed in an Eppendorf centrifuge resulting in the separation of the beads remaining in the PCR tube and the supernatant, which was collected in the 0.5 ml Eppendorf tube. The beads were resuspended in […] PBS and the radioactivity was counted in a liquid scintillation counter after addition of 3 ml scintillation fluid. The radioactivity remaining in the 100 L supernatant was counted in the same way. It was determined that under the conditions described 65% Fyn, 25% PLC and 15%Lck SH2 domain were bound to the beads. […]
The binary complex of FKpYEEI and FKBP 12 has the same affinity for the Fyn SH2 domain as free FKpYEEI (see FIG. 7). […] The binding reactions were rotated at room temperature for 2 hours, centrifuged and analysed as described above.
In this assay, in 100 L binding reactions, radioactively labeled PLC SH2 domain (400 nM) was incubated with 7.5 L of a 1:1 pYEEI bead slurry. […] The binding reactions were rotated at room temperature for 2 hours, centrifuged and analysed as described above. […]

Fyn SH2 domain = target: T1, Fyn SH2 domain (Homo sapiens, UniProt P06241); experiment: Binding constants (Kd) for Fyn SH2 domain, isothermal titration calorimetry; details: ITC
T1 construct: The Fyn, Lck and PLC SH2 domains were expressed in bacteria as GST fusion proteins; GST (cleaved yes); made in house; host or cells: bacteria
T1 sequence (P06241 149-246 limits assumed): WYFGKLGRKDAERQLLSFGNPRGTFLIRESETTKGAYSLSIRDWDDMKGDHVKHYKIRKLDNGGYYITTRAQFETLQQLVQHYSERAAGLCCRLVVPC
Procedure: SLFpYEEI and FKpYEEI are bifunctional molecules that can bind FKBP12 and FKBP52 as well as the Fyn SH2 domain (FIG. 2). The binding constants (Kd values) of the bifunctional molecules for the three proteins were measured using isothermal titration calorimetry (ITC) (Table 1).
FIG. 6 is a graph of the competition binding curves for the Fyn SH2 domain and FKpYEEI as well as the Fyn SH2 domain and the peptide pYEEI in the absence and the presence of FKBP52. Fyn SH2 domain was incubated with peptide beads and increasing concentrations of FKpYEEI in the absence or presence of FKBP52. Specifically, in this assay, in 100 L binding reactions, radioactively labeled Fyn SH2 domain (200 nM) was incubated with 7.5 L of a 1:1 pYEEI bead slurry. Increasing concentrations of FKpYEEI or pYEEI (0.1-20.0 M) were added in the presence or absence of FKBP52 (4.5 M). The binding reactions were rotated at room temperature for 2 hours, centrifuged and analysed as described above. Half maximal binding (IC50) is observed at 750 riM FKpYEEI in the absence of FKBP52. […] Using ITC, the binding constant (Kd) for Fyn SH2 domain binding to the FKpYEEI-FKBP52 complex was determined.
FIG. 13 is a graph of the competition binding curves for the Fyn SH2 domain and SLFpYEEI in the absence and the presence of FKBP12. Fyn SH2 domain was incubated with increasing concentrations of SLFpYEEI in the absence or presence of FKBP12. In this assay, in 100 L binding reactions, radioactively labeled Fyn SH2 domain (200 nM) was incubated with 7.5 L of a 1:1 pYEEI bead slurry. Increasing concentrations of SLFpYEEI (0.1-20.0 M) were added in the presence or absence of FKBP12 (20 M). The binding reactions were rotated at room temperature for 2 hours, centrifuged and analysed as described above. […] This effect was confirmed by ITC.

[1] = ligand alone, no presenter protein, read-out: Binding constant (Kd) for Fyn SH2 domain, free ligand

Row | SMILES | Effect of FKBP12 on affinity for the PLC SH2 domain (PLC SH2 domain) | pKd (Fyn SH2 domain; [1]) | pKd (Fyn SH2 domain; in complex with FKBP52, read-out: Kd for Fyn SH2 domain binding to the FKpYEEI-FKBP52 complex)
1 | CC[C@H](C)[C@H](NC(=O)[C@H](CCC(=O)O)NC(=O)[C@H](CCC(=O)O)NC(=O)[C@H](Cc1ccc(OP(=O)(O)O)cc1)NC(=O)COc1cccc([C@@H](CCc2ccc(OC)c(OC)c2)OC(=O)[C@@H]2CCCCN2C(=O)C(=O)C(C)(C)CC)c1)C(=O)O [SLFpYEEI] | reduced binding | 6.74 | 
2 | CC[C@H](C)[C@H](NC(=O)[C@H](CCC(=O)O)NC(=O)[C@H](CCC(=O)O)NC(=O)[C@H](Cc1ccc(OP(=O)(O)O)cc1)NC(=O)OCC[C@@H]1/C=C(\C)C[C@H](C)C[C@H](OC)[C@H]2O[C@@](O)(C(=O)C(=O)N3CCCC[C@H]3C(=O)O[C@H](/C(C)=C/[C@@H]3CC[C@@H](O)[C@H](OC)C3)[C@H](C)[C@@H](O)CC1=O)[C@H](C)C[C@@H]2OC)C(=O)O [FKpYEEI] | decreased affinity for the PLC SH2 domain; also recorded: reducing binding to the PLC SH2 domain | 6.28 | 6.89
